This note sets out measurements from paper PMC6803849, “Biodistribution of Nanostructured Lipid Carriers in Mice Atherosclerotic Model” (Molecules, 2019).

The structures appear in SMILES notation.

For orientation: Ki means the equilibrium dissociation constant of an inhibitor or competing ligand from its target. A high value points to a looser hold on the target.

Common to all, as to assay: MMP inhibition assay with fluorogenic substrate
Holding throughout (format): biochemical

In assay [1] the target is T1, hMMP-10 (Homo sapiens, UniProt P09238).
T1 construct: purchased R&D Systems
The protocol:
(§1) The binding capacity of the RXP470.1 ligand grafted on RXP-NLC surface was first assessed through an inhibition assay in the presence of a fluorogenic substrate. The affinity and selectivity profile of RXP-NLC was determined on a set of eight human MMPs and compared to the parent ligand.
(§2) Affinity and selectivity profile of RXP-NLC were determined toward a set of 8 human MMPs. Human MMP-8, -9, -12, and -13 were produced at CEA in Saclay according to a procedure previously reported. Other MMPs were purchased from R&D Systems (Minneapolis, MN, USA). MMP inhibition assays were carried out in 50 mM Tris-HCl buffer, pH = 6.8, 10 mM CaCl2 at 25 °C as previously described. Pro-MMPs were pre-activated by p-aminophenylmercuric acetate following the method described by R&D Systems. Titration experiments were carried out to determine the active enzyme concentration for each MMP prior to the assay. Continuous kinetic assays were performed by recording the fluorescence increase induced by the cleavage of fluorogenic substrates (Mca-Pro-Leu- Gly-Leu-Dpa-Ala-Arg-NH2 for MMP-1, -2, -7, -8, -9, -10, -12, -13, and -14 and Mca-Arg-Pro-Lys-Pro- Val-Glu- Nva-Trp-Arg-LysDNP-NH2 for MMP-3). A typical experiment was performed in 200 μL of Tris buffer containing 0.2–0.5 nM of MMP, and a 4.5 μM concentration of fluorogenic substrates. Black, flat-bottomed, 96-well non-binding surface plates (Corning-Costar, Schiphol-RijK, Netherlands) were used for these tests. Fluorescence signals were monitored using a Fluoroskan Ascent photon counter spectrophotometer (Thermo-Labsystems, Courtaboeuf, France) equipped with a temperature control device and a plate shaker. […] Ki values were determined using the method proposed by Horovitz and Leviski.

The target of assay [2] is T2, hMMP-12 (Homo sapiens, UniProt P39900).
T2 construct: made in house
Here is the method:
as §1, §2

Assay [3] addresses T3, hMMP-13 (Homo sapiens, UniProt P45452).
T3 construct: made in house
The protocol:
as §1, §2

The target of assay [4] is T4, hMMP-14 (Homo sapiens, UniProt P50281).
T4 construct: purchased R&D Systems
Here is the method: as §1, §2

Assay [5] concerns the target T5, hMMP-2 (Homo sapiens, UniProt P08253).
T5 construct: purchased R&D Systems
T5 sequence (P08253 110-660): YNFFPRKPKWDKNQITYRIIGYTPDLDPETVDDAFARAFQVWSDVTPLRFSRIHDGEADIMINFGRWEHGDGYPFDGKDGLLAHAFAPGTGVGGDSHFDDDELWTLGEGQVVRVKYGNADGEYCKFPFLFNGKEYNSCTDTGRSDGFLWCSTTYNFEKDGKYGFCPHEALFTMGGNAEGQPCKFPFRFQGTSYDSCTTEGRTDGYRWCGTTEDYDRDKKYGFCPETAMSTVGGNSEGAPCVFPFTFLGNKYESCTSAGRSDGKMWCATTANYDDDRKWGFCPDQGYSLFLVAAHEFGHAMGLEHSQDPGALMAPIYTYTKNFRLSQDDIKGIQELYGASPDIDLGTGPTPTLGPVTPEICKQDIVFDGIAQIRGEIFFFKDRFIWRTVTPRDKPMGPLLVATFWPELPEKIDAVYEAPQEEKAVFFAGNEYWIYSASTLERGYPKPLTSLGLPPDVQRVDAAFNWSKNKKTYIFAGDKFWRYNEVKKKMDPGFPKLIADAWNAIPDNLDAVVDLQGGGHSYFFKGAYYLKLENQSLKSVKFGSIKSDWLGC
Here is the method: as §1, §2

Assay [6] deals with T6, hMMP-3 (Homo sapiens, UniProt P08254).
T6 construct: purchased R&D Systems
The protocol:
as §1, §2

For assay [7], the target named is T7, hMMP-8 (Homo sapiens, UniProt P22894).
T7 construct: made in house
Here is the method: as §1, §2

Assay [8] concerns the target T8, hMMP-9 (Homo sapiens, UniProt P14780).
T8 construct: made in house
The protocol:
as §1, §2

T8 sequence (P14780 94-707): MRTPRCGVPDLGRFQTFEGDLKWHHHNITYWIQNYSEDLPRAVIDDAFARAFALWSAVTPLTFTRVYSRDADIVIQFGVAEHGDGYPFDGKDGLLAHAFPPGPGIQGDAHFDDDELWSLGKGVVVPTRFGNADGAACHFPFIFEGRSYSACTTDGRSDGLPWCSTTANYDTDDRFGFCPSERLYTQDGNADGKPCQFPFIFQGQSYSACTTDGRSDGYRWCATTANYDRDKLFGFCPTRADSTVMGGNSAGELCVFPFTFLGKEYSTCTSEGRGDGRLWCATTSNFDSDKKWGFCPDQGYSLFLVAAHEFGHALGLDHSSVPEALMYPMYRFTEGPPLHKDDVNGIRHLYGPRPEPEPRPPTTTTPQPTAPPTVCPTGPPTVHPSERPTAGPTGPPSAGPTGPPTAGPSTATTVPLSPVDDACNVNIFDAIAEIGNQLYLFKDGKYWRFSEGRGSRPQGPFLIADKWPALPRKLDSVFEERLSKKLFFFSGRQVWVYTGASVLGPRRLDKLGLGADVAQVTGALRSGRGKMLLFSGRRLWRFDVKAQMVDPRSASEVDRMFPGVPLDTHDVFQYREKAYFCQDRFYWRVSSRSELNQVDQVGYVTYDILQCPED
T1 sequence (P09238 99-476): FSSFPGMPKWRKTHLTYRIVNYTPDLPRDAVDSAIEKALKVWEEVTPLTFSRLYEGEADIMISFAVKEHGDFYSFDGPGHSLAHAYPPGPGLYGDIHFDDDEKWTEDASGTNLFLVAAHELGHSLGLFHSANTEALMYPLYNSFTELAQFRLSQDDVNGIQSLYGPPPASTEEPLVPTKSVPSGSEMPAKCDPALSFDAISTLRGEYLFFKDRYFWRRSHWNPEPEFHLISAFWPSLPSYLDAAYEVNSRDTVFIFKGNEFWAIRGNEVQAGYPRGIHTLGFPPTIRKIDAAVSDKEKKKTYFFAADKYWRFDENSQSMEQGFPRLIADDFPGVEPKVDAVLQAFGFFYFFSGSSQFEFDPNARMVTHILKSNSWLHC
T2 sequence (P39900 106-470): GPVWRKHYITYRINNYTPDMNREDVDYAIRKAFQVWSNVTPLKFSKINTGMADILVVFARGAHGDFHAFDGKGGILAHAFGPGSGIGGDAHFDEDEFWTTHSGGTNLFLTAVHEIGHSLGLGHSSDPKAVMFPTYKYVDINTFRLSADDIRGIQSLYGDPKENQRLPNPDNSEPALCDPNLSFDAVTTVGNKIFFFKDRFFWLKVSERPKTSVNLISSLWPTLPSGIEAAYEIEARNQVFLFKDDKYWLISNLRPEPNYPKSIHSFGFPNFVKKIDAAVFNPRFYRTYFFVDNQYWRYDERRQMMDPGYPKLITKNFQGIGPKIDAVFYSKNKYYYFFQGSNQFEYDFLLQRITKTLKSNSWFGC
T7 sequence (P22894 101-467): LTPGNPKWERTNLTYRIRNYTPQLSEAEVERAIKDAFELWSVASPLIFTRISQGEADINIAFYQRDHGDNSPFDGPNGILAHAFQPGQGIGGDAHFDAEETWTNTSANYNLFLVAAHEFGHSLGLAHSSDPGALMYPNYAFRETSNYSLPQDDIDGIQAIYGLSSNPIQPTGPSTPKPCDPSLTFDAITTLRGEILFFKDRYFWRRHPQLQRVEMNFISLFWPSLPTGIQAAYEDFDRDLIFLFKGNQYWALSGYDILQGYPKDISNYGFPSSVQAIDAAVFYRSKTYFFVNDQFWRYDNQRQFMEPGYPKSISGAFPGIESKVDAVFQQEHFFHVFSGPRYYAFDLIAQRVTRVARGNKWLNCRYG
T6 sequence (P08254 100-477): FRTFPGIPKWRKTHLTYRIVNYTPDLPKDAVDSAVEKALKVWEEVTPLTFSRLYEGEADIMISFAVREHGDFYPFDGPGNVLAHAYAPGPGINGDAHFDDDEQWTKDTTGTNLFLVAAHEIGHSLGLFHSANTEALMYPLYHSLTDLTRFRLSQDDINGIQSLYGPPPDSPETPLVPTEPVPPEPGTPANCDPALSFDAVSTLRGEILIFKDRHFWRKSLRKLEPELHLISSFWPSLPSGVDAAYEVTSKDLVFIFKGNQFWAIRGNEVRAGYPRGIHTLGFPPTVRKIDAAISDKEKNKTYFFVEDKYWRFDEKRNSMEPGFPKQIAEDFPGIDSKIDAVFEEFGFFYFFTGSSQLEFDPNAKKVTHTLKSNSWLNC

For the molecule `NC(=O)[C@H](CCC(=O)O)NC(=O)[C@H](CCC(=O)O)NC(=O)[C@H](Cc1cc(-c2ccc(-c3cccc(Cl)c3)cc2)no1)CP(=O)(O)c1ccc(Br)cc1` [RXP470.1], the Ki in assay [1] was found to be 0.017 ± 0.002 µM; in assay [2] (50 mM Tris-HCl buffer, pH 6.8, 10 mM CaCl2, 25 °C, mean ± SD of three independent experiments), 0.00026 ± 5e-05 µM; in assay [3], 0.011 ± 0.001 µM; in assay [4], 0.15 ± 0.021 µM; in assay [5] it was 0.052 ± 0.004 µM; in assay [6] it was 0.08 ± 0.002 µM. In addition, the figures for the Ki in assay [7] and in assay [8] were 0.12 ± 0.04 µM and 0.17 ± 0.05 µM, respectively. In assay [1] (relative to hMMP12), the “Selectivity factor hMMP-10” value stood at 65. Besides, in assay [2] (relative to hMMP12), the “Selectivity factor hMMP-12” value stood at 1. For the same molecule, the “Selectivity factor hMMP-13” value in assay [3] (relative to hMMP12) is reported as 42. Further, in assay [4] (relative to hMMP12), the “Selectivity factor hMMP-14” value worked out at 577. Besides, the “Selectivity factor hMMP-2” value in assay [5] (relative to hMMP12) worked out at 200. For the same molecule, the “Selectivity factor hMMP-3” value in assay [6] (relative to hMMP12) came out at 308. Further, the “Selectivity factor hMMP-8” value in assay [7] (relative to hMMP12) worked out at 462. The “Selectivity factor hMMP-9” value in assay [8] (relative to hMMP12) is 654.
